pIC50: −log10 of the molar value. “And” between values parts separate entries of the source, which are not always exact repeats. Equal entries are not always repeated.
Key:
[1] = Rat brain to plasma ratio (Kp, Kp,uu); format: in vivo; conditions: male, Sprague Dawley, intravenous, 0.2 mg/kg; for Kp at 15 min: brain and plasma, rat brain:plasma; for Kp uu at 15 min: brain and plasma (unbound), rat unbound brain:unbound plasma
Protocol: Determination of brain to plasma ratio:
All animal study procedures were approved by the Institutional Animal Care and Use Committee and were conducted in accordance with the National Institutes of Health regulations of animal care covered in Principles of Laboratory Animal Care (National Institutes of Health). All rats were fasted overnight prior to testing.
For determination of the brain over plasma ratio (Kp), compounds were formulated in 8% ethanol, 32% PEG400 and 60% DMSO (v/v/v) and administered as a single 0.2 mg/kg IV dose (1 mL/kg) to male, Sprague Dawley rats (n = 1) via injection into a surgically-implanted jugular vein catheter. At 15 min post dosing, blood sample was collected into chilled, K2EDTA anticoagulant-fortified tube and immediately placed on wet ice. The blood sample was then centrifuged (1700 rcf, 5 minutes, 4 °C) to obtain plasma sample. At the same post-administration time point, whole brain sample was obtained by rapid dissection, rinsed with PBS, and immediately frozen in individual tissue collection box (dry ice). All brain and plasma samples were stored at -80 °C until […]
Sample Analysis: Concentrations in plasma and brain homogenates were quantified by liquid chromatography tandem mass spectrometry (LC-MS/MS). Whole brains were homogenized in 3 mL of 70:30 IPA:water in a mini bead beater for 3 min, and centrifuged at 3,500 g for 5 min. 5 uL of the supernatant was diluted in 15 uL of blank plasma for quantification of the analytes. Plasma samples were centrifuged at 3,500 g for 5 min. A standard curve was generated by diluting the analytes DMSO stocks with blank plasma to obtain a final concentration of 10,000 ng/ml followed by a serial dilution down to 0.5 ng/ml. Quality controls were generated by a serial dilution of the 5,000 ng/ml standard curve solution in blank plasma to obtain 3 concentrations of 500, 50, and 5 ng/ml. 20 uL of brain diluted in plasma, plasma, blank plasma, standard curve and QC samples were loaded in a V-bottom 96-well plate. 120 uL of acetonitrile containing 0.05 uM carbamazepine (internal standard) was added to each well and the plate was centrifuged at 3,500 g for 5 min. 60 uL of the supernatant of each well (protein free) was transferred to a new 96-well plate containing 60 uL of water. The plates were sealed for analysis by LC-MS/MS.
Plasma and brain tissue samples originating from in vivo studies were analyzed by electrospray ionization using an AB Sciex Q-TRAP 5500 (Foster City, CA) that was coupled to a Shimadzu LC-20AD pump (Columbia, MD) and a Leap Technologies CTC PAL auto-sampler (Carrboro, NC). Analytes were separated by gradient elution using a C18 column (3 x 50 mm, 3 mm; Fortis Technologies Ltd, Cheshire, UK) that was thermostated at 40 °C. HPLC mobile phase A was 0.1% formic acid in water (pH unadjusted); mobile phase B was 0.1% formic acid in acetonitrile (pH […]
min, with an isocratic hold for 0.5 min, before transitioning to 10% B over 0.05 min. The column was re-equilibrated (1 min) before the next sample injection. The total run time was 2.55 min, and the HPLC flow rate was 0.5 ml/min. The source temperature was set at 500 °C, and mass spectral analyses were performed using a Turbo-Ion spray source in positive ionization mode (5.0-kV spray voltage) and using multiple-reaction monitoring of transitions specific for the analytes. All data were analyzed using AB Sciex Analyst 1.5.1 software.
Brain plasma concentration ratio (Kp) was calculated by dividing brain concentration by plasma concentration for each animal. Unbound brain to unbound plasma concentration ratio (Kp,uu) is calculated using the following formula: Kp,uu = (Brain ng/g x brain fu)/(plasma ng/ml x plasma fu).
In-vitro determination of blood-brain barrier penetration potential
Blood-brain barrier penetration was determined using MDR1-MDCK cell monolayers by Absorption Systems, following their protocol. In short, compounds were incubated at […] final concentration on one side of the cell monolayer for 2 hours. […]

human TREK-1 (hTREK-1) = molecular target: T1, human TREK-1 (hTREK-1) (Homo sapiens, UniProt O95069); test: TREK-1 thallium flux assay (CHO-K1 cells stably expressing hTREK-1); format: cell-based; conditions: human TREK-1, thallium flux; read-out: h TREK-1 Tl+ IC50
T1 construct: expressed in transfected cells
T1 sequence (O95069 1-426): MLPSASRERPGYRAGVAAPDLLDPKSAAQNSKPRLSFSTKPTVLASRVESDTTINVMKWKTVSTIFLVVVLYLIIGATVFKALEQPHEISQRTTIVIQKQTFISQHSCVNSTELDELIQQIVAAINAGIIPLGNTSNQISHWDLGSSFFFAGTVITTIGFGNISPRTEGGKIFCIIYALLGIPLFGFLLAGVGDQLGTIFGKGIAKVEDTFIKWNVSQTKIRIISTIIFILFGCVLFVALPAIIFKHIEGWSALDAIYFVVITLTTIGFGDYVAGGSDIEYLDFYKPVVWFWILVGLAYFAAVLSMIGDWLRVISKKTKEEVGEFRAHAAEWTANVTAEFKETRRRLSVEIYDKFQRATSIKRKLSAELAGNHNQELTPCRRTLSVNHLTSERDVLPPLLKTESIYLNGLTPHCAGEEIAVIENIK
Summary of the method: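 Cells loaded with FluxOR dye were preincubated 10 min with test compound in 0.3% DMSO, then given thallium stimulus buffer. ΔRatio was fluorescence 25 s after thallium over pre-thallium baseline; % inhibition was normalised between vehicle and 10 μM reference blocker, and IC50 was fitted from concentration–response.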

Compound	Kp at 15 min [1]	pIC50 (human TREK-1 (hTREK-1))	Kp uu at 15 min [1]
Cc1cc(C#Cc2ccccc2)cnc1NC(=O)c1cc(OC[C@@H]2COCCO2)ccc1Cl [Compound 7, (S)-5-((1,4-Dioxan-2-yl)methoxy)-2-chloro-N-(3-methyl-5-(phenylethynyl)pyridin-2-yl)benzamide]	0.86	6.68	–
CC(=O)N1CCC(n2ncc(Cl)c2C(=O)Nc2ncc(C#Cc3ccccc3)cc2C)CC1 [Compound 10, 1-(1-Acetylpiperidin-4-yl)-4-chloro-N-(3-methyl-5-(phenylethynyl)pyridin-2-yl)-1H-pyrazole-5-carboxamide]	2.7	7.17 and 7.15	1
CC(=O)N1CC[C@@H](n2ncc(Cl)c2C(=O)Nc2ncc(C#Cc3ccc(F)cc3)cc2C)[C@H](F)C1 [Compound 11, 1-((3R,4R)-1-Acetyl-3-fluoropiperidin-4-yl)-4-chloro-N-(5-((4-fluorophenyl)ethynyl)-3-methylpyridin-2-yl)-1H-pyrazole-5-carboxamide]	1.5	6.96	0.1
Cc1cc(C#Cc2ccccc2)cnc1NC(=O)c1c(Cl)cnn1[C@H]1CCOC1 [Compound 15a, (S)-4-Chloro-N-(3-methyl-5-(phenylethynyl)pyridin-2-yl)-1-(tetrahydrofuran-3-yl)-1H-pyrazole-5-carboxamide]	2.8	6.44	–

— PMC12621189, “Optimization of Selective and CNS Penetrant Alkyne-Based TREK Inhibitors: The Discovery and Characterization of ONO-9517601 (VU6022856) and ONO-7927846 (VU6024391)” (Journal of Medicinal Chemistry, 2025)
